Like-named read-outs stand apart in the source and are kept apart here.
How the values were obtained:
[1] = test system: stress ulcer; test: Test B: Inhibition on stress ulcer; format: in vivo, male Sprague-Dawley rats; conditions: for ED50: Rattus norvegicus, read-out: ED50 (Test B, stress ulcer)
Experimental: Inhibition on stress ulcer
Five male Sprague-Dawley rats, aged 7 weeks and weighing about 200 g were used per group for the study on stress ulcer after the fast for 24 hours. Each animal was immobilized in a restrain cage and immersed to a level of the xiphoid in a water bath kept 22° C. The test compound suspended in 0.1% methylcellulose solution was administered orally (5 ml/kg) just before the immobilization. Seven hours later, the animals were sacrificed and their stomachs were removed. The stomach was then fixed with 2% formalin. The area of ulcers was measured for each animal. The mean area (mm^2) in the test animals was compared with that in the control animals.

[2] = test system: jejunum; test: Spasmolytic activity in vivo: spontaneous contraction of the jejunum; design: species or system Mongrel dogs; conditions: dogs
Experimental: (§1) Spasmolytic activity in vivo
(§2) Mongrel dogs were anesthetized with s.c. injection of morphine chloride (10 mg/kg) and urethane (1.5 g/kg). The abdomen was incised along the midline, and a ballon filled with water was introduced into the gastric antrum or jejunum. The spontaneous contraction of the gastric antrum and jejunum were continuously recorded through the balloon connected to a pressure transducer. The test drugs were given intravenously. The effect of the test drug is expressed as inhibitory percentage compared to the contractile magnitude obtained before the test drug. The blood pressure was also monitored with a pressure transducer through a cannula inserted in the femoral artery.

[3] = test system: gastric antrum; test: Spasmolytic activity in vivo: spontaneous contraction of the gastric antrum; design: species or system Mongrel dogs; conditions: dogs
Experimental: as §1, §2

[4] = Blood pressure monitored in spasmolytic activity test (cannula in femoral artery); format: in vivo, Mongrel dogs; conditions: dogs
Experimental: as §1, §2

[5] = test system: gastric secretion; test: Test A: Gastric secretion in Heidenhain pouch dogs (tetragastrin-stimulated total acid output); format: in vivo, Beagle dogs; conditions: Canis lupus familiaris, intravenous, tetragastrin 10 μg/kg/hr
Experimental: Gastric secretion in Heidenhain pouch dogs
Beagle dogs, weighing about 8-13 kg, were used for the study on gastric secretion. The animals were surgically provided with a vagally denervated Heidenhain pouch. One month or more later, the dogs were fasted overnight. Gastric secretion was stimulated by an intravenous infusion of tetragastrin (10 μg/kg/hr). Gastric samples were collected at 15 min intervals. After its volume was almost constant, test compound suspended in 0.1% methyl cellulose solution was injected intravenously (0.2 ml/kg). Acid concentration was determined by titrating an aliquot to pH 7.0 with 0.1N sodium hydroxide solution using automatic titration (Hiranuma RAT-11 Type). Total acid output was calculated by multiplying total volume of gastric samples by acid concentration, and percentage change of total acid output was calculated by comparing with predosing value of test compound.

[6] = test system: ethanol ulcer; test: Test C: Inhibition on ethanol ulcer; format: in vivo, male Sprague-Dawley rats; conditions: Rattus norvegicus, 0.5 h; oral; rats; absolute ethanol 5 ml/kg 30 minutes after dosing
Experimental: Inhibition on ethanol ulcer
Five male Sprague-Dawley rats, aged 7 weeks and weighing about 200 g, were used per group for the study on ethanol ulcer after the fast for 24 hours.
Test compound was suspended in 0.1% methylcellulose aqueous solution, and the suspension (5 ml/kg) was orally given to each rat.
The control group was given a vehicle, i.e. 0.1% methylcellulose aqueous solution (5 ml/kg), alone in the same way.
Absolute ethanol (5 ml/kg) was orally administered 30 minutes after dosing with test compound, and one hour later, the rats were sacrificed and their stomachs were removed. The area of ulcers of each rat was measured. The mean area (mm^2) in the medicated group was compared with that in the control group.

[7] = British Pat. No. 666,778; cited from earlier work
[8] = oral, rats, restraint and water immersion 22° C., 7 hours

Row | Structure (SMILES) | Duration (jejunum) ([2]; 100 μg/Kg intravenous) [min] | Inh. (jejunum) ([2]; 100 μg/Kg intravenous) [%] | Duration (gastric antrum) ([3]; 100 μg/Kg intravenous) [min] | Inh. (gastric antrum) ([3]; 100 μg/Kg intravenous) [%] | Blood pressure change (gastric antrum) ([4]; 100 μg/Kg intravenous) | Blood pressure change (jejunum) ([4]; 100 μg/Kg intravenous) | Duration (jejunum) ([2]; 10 μg/Kg intravenous) [min] | Inh. (jejunum) ([2]; 10 μg/Kg intravenous) [%] | Duration (gastric antrum) ([3]; 10 μg/Kg intravenous) [min] | Inh. (gastric antrum) ([3]; 10 μg/Kg intravenous) [%] | ED50 [5] [mg/kg] | ED50 [6] [mg/kg] | Blood pressure change (gastric antrum) ([4]; 10 μg/Kg intravenous) | Blood pressure change (jejunum) ([4]; 10 μg/Kg intravenous) [%] | further results
1 | CC(C)N(CCC(C(N)=O)(c1ccccc1)c1ccccn1)C(C)C (stereo not drawn) [Disopyramide phosphate, α-phenyl-α-(2-pyridyl)-4-(N,N-diisopropylamino)butyramide] | 0 | 4 | 10 | 46 | +3% | +1% | – | – | – | – | – | – | – | – | ED50 (Test B, stress ulcer) [1, 8]: No Effect; Duration (jejunum) ([2]; 1000 μg/Kg intravenous): > 60 min; Inh. (jejunum) ([2]; 1000 μg/Kg intravenous): 85%; Duration (gastric antrum) ([3]; 1000 μg/Kg intravenous): 60 min; Inh. (gastric antrum) ([3]; 1000 μg/Kg intravenous): 88%; Blood pressure change (gastric antrum) ([4]; 1000 μg/Kg intravenous): +5%; Blood pressure change (jejunum) ([4]; 1000 μg/Kg intravenous): +14%
2 | CC(CC(C(N)=O)(c1ccccc1)c1ccccn1)N(C)C (centres unmarked) [Example 3, 4-(N,N-dimethylamino)-2-phenyl-2-(2-pyridyl)-valeramide] | > 60 | 93 | 90 | 95 | -4% | -7% | 30 | 70 | 60 | 52 | 0.27 | 6.8 | -3% | -3 | ED50 ([1]; po, 7 h): 2.7 mg/kg
3 | CN1CCN(CC(=O)N2c3ccccc3C(=O)Nc3cccnc32)CC1 [Gastrozepine] | – | – | – | – | – | – | – | – | – | – | 0.03 | 14.4 | – | – | ED50 [1, 8]: 36 mg/kg
4 | COC1CC(=C(c2cccs2)c2cccs2)C[N+](C)(C)C1 (centres unmarked) [Timepidium Bromide] | > 60 | 91 | 30 | 92 | -19% | -24% | 30 | 59 | 10 | 55 | – | – | +4% | -3 | –
5 | CC(CN(C)C)C(C#N)(c1ccccc1)c1ccccn1 (stereo not drawn) [α-phenyl-α-(2-pyridyl)-4-(N,N-dimethylamino)-3-methylbutyronitrile] | – | – | – | – | – | – | – | – | – | – | – | – | – | – | antihistaminic activity [7]: possesses antihistaminic activity
